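Following 48 hours of exposure in 96-well plates, responses at five concentrations were used to interpolate endpoints linearly. GI50 marks 50% less growth.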 Activity calls are given as the source filed them. Rule as the data show it: active = GI50 up to about 1.1 µM and inactive = higher. Where a SMILES comes first, the peptide text is derived from it. The star is where a group is joined. Boc = CC(C)(C)OC(=O)*
Assays:
Assay in all cases: NCI-60 cell line screen, 48 h
DU-145 = test system: DU-145
HOP-92 = test system: HOP-92
BT-549 = test system: BT-549
CAKI-1 = test system: CAKI-1
OVCAR-4 = test system: OVCAR-4
UACC-257 = test system: UACC-257
NCI-H522 = test system: NCI-H522
OVCAR-5 = test system: OVCAR-5
MDA-MB-231 = test system: MDA-MB-231
RXF 393 = test system: RXF 393
M14 = test system: M14
NCI-H23 = test system: NCI-H23
OVCAR-3 = test system: OVCAR-3
NCI-H460 = test system: NCI-H460
SNB-19 = test system: SNB-19
Hs-578T = test system: Hs-578T
SNB-75 = test system: SNB-75
SK-MEL-5 = test system: SK-MEL-5
HT-29 = test system: HT-29
MCF7 = test system: MCF7
SF-268 = test system: SF-268
OVCAR-8 = test system: OVCAR-8
HCT-15 = test system: HCT-15
HOP-62 = test system: HOP-62
LOX IMVI = test system: LOX IMVI
NCI-H226 = test system: NCI-H226
ACHN = test system: ACHN
SF-295 = test system: SF-295
HCT-116 = test system: HCT-116
HCC 2998 = test system: HCC 2998
Malme-3M = test system: Malme-3M
PC-3 = test system: PC-3
COLO 205 = test system: COLO 205
MDA-N = test system: MDA-N
KM12 = test system: KM12
UACC-62 = test system: UACC-62
NCI/ADR-RES = test system: NCI/ADR-RES
TK-10 = test system: TK-10
A549 = test system: A549
SK-OV-3 = test system: SK-OV-3
786-0 = test system: 786-0
UO-31 = test system: UO-31
IGROV-1 = test system: IGROV-1
SF-539 = test system: SF-539
EKVX = test system: EKVX
SW-620 = test system: SW-620
MDA-MB-435 = test system: MDA-MB-435
RPMI-8226 = test system: RPMI-8226
SR = test system: SR
K562 = test system: K562
T47D = test system: T47D
SK-MEL-2 = test system: SK-MEL-2
SN12C = test system: SN12C
HL-60 = test system: HL-60
MOLT-4 = test system: MOLT-4
A498 = test system: A498
U-251 = test system: U-251
CCRF-CEM = test system: CCRF-CEM
SK-MEL-28 = test system: SK-MEL-28

## NC(CO)Cc1c[nH]cn1 (stereo not given)
DU-145
  GI50: > 100 µM (inactive)
HOP-92
  GI50: > 10 µM (inactive)
BT-549
  GI50: > 100 µM (inactive)
CAKI-1
  GI50: > 100 µM (inactive)
OVCAR-4
  GI50: > 10 µM (inactive)
UACC-257
  GI50: > 100 µM (inactive)
NCI-H522
  GI50: > 100 µM (inactive)
OVCAR-5
  GI50: > 100 µM (inactive)
MDA-MB-231
  GI50: > 100 µM (inactive)
RXF 393
  GI50: > 10 µM (inactive)
M14
  GI50: > 100 µM (inactive)

## COC(=O)[C@H](Cc1ccc(O)cc1)NC(=O)[C@H](Cc1ccc(O)cc1)NC(=O)OC(C)(C)C (Boc-Tyr-Tyr-OMe)
NCI-H23
  GI50: > 100 µM (inactive)
OVCAR-3
  GI50: 72.3 µM (inactive)
NCI-H460
  GI50: > 100 µM (inactive)
SNB-19
  GI50: > 100 µM (inactive)
Hs-578T
  GI50: > 100 µM (inactive)
SNB-75
  GI50: > 100 µM (inactive)
SK-MEL-5
  GI50: 38 µM (inactive)
DU-145
  GI50: > 100 µM (inactive)
HT-29
  GI50: > 100 µM (inactive)
MCF7
  GI50: 43.8 µM (inactive)
SF-268
  GI50: > 100 µM (inactive)
OVCAR-8
  GI50: 66.4 µM (inactive)
HCT-15
  GI50: > 100 µM
HOP-62
  GI50: > 100 µM (inactive)
BT-549
  GI50: > 100 µM (inactive)
CAKI-1
  GI50: > 100 µM (inactive)
LOX IMVI
  GI50: > 100 µM (inactive)
NCI-H226
  GI50: > 100 µM (inactive)
ACHN
  GI50: > 100 µM (inactive)
SF-295
  GI50: > 100 µM (inactive)
HCT-116
  GI50: > 100 µM (inactive)
HCC 2998
  GI50: 39.4 µM (inactive)
Malme-3M
  GI50: > 100 µM (inactive)
PC-3
  GI50: > 100 µM (inactive)
COLO 205
  GI50: 37.2 µM (inactive)
UACC-257
  GI50: > 100 µM (inactive)
MDA-N
  GI50: > 100 µM (inactive)
KM12
  GI50: > 100 µM (inactive)
UACC-62
  GI50: > 100 µM (inactive)
NCI-H522
  GI50: 28 µM (inactive)
NCI/ADR-RES
  GI50: > 100 µM (inactive)
OVCAR-5
  GI50: > 100 µM (inactive)
TK-10
  GI50: > 100 µM (inactive)
A549
  GI50: > 100 µM (inactive)
SK-OV-3
  GI50: > 100 µM (inactive)
MDA-MB-231
  GI50: 60 µM (inactive)
786-0
  GI50: > 100 µM (inactive)
RXF 393
  GI50: 49.7 µM (inactive)
UO-31
  GI50: > 100 µM (inactive)
IGROV-1
  GI50: 56.6 µM (inactive)
SF-539
  GI50: 82.2 µM (inactive)
M14
  GI50: > 100 µM (inactive)
EKVX
  GI50: > 100 µM (inactive)

## COC(=O)C1(C(=O)OC)N=C(C)OC1c1ccccc1O (stereo not given)
NCI-H23
  GI50: > 100 µM (inactive)
OVCAR-3
  GI50: > 100 µM (inactive)
NCI-H460
  GI50: > 100 µM (inactive)
SNB-19
  GI50: > 100 µM (inactive)
SNB-75
  GI50: > 100 µM (inactive)
SK-MEL-5
  GI50: > 100 µM (inactive)
DU-145
  GI50: > 100 µM (inactive)
MCF7
  GI50: > 100 µM (inactive)
HOP-92
  GI50: > 100 µM (inactive)
OVCAR-8
  GI50: > 100 µM (inactive)
SW-620
  GI50: > 100 µM (inactive)
MDA-MB-435
  GI50: > 100 µM (inactive)
RPMI-8226
  GI50: > 100 µM (inactive)
HCT-15
  GI50: > 100 µM
SR
  GI50: > 100 µM (inactive)
HOP-62
  GI50: > 100 µM (inactive)
BT-549
  GI50: > 100 µM (inactive)
CAKI-1
  GI50: > 100 µM (inactive)
K562
  GI50: > 100 µM (inactive)
LOX IMVI
  GI50: > 100 µM (inactive)
NCI-H226
  GI50: > 100 µM (inactive)
ACHN
  GI50: > 100 µM (inactive)
T47D
  GI50: > 100 µM (inactive)
SK-MEL-2
  GI50: > 100 µM (inactive)
SF-295
  GI50: > 100 µM (inactive)
HCT-116
  GI50: > 100 µM (inactive)
SN12C
  GI50: > 100 µM (inactive)
HCC 2998
  GI50: > 100 µM (inactive)
HL-60
  GI50: > 100 µM (inactive)
PC-3
  GI50: > 100 µM (inactive)
COLO 205
  GI50: > 100 µM (inactive)
OVCAR-4
  GI50: > 100 µM (inactive)
UACC-257
  GI50: > 100 µM (inactive)
KM12
  GI50: > 100 µM (inactive)
UACC-62
  GI50: > 100 µM (inactive)
NCI/ADR-RES
  GI50: > 100 µM (inactive)
OVCAR-5
  GI50: > 100 µM (inactive)
TK-10
  GI50: > 100 µM (inactive)
A549
  GI50: > 100 µM (inactive)
SK-OV-3
  GI50: > 100 µM (inactive)
MOLT-4
  GI50: > 100 µM (inactive)
A498
  GI50: > 100 µM (inactive)
U-251
  GI50: > 100 µM (inactive)
CCRF-CEM
  GI50: > 100 µM (inactive)
SK-MEL-28
  GI50: > 100 µM (inactive)
786-0
  GI50: > 100 µM (inactive)
RXF 393
  GI50: > 100 µM (inactive)
UO-31
  GI50: > 100 µM (inactive)
IGROV-1
  GI50: > 100 µM (inactive)
M14
  GI50: > 100 µM (inactive)
EKVX
  GI50: > 100 µM (inactive)

## CCN(CC)CCNc1n[n+]([O-])c2cc([N+](=O)[O-])ccc2[n+]1[O-]
OVCAR-3
  GI50: 0.865 µM (active)
SNB-19
  GI50: 1.19 µM (inactive)
Hs-578T
  GI50: 3.25 µM (inactive)
SK-MEL-5
  GI50: 0.429 µM (active)
HT-29
  GI50: 0.197 µM (active)
SF-268
  GI50: 0.568 µM (active)
OVCAR-8
  GI50: 0.283 µM (active)
MDA-MB-435
  GI50: 0.847 µM (active)
HOP-62
  GI50: 0.434 µM (active)
BT-549
  GI50: 1.19 µM (inactive)
CAKI-1
  GI50: 0.205 µM (active)
LOX IMVI
  GI50: 0.444 µM (active)
NCI-H226
  GI50: 1.83 µM (inactive)
HCT-116
  GI50: 0.3 µM (active)
COLO 205
  GI50: 0.326 µM (active)
OVCAR-4
  GI50: 1 µM (active)
MDA-N
  GI50: 0.452 µM (active)
KM12
  GI50: 0.504 µM (active)
NCI/ADR-RES
  GI50: 0.979 µM (active)
OVCAR-5
  GI50: 2.04 µM (inactive)
A549
  GI50: 0.454 µM (active)
SK-OV-3
  GI50: 0.687 µM (active)
A498
  GI50: 1.9 µM (inactive)
U-251
  GI50: 0.603 µM (active)
SK-MEL-28
  GI50: 3.41 µM (inactive)
RXF 393
  GI50: 0.809 µM (active)
UO-31
  GI50: 1.84 µM (inactive)
IGROV-1
  GI50: 0.116 µM (active)
M14
  GI50: 0.377 µM (active)
EKVX
  GI50: 1.94 µM (inactive)
